Test results as given in patent US8058258B2, “Methods for cancer therapy and stem cell modulation” (Agency for Science, Technology and Research, priority 2006, dated 2011).

What was measured:
[1] = test system: PRC2 components SUZ12, EZH2 and EED; assay: Western blot of PRC2 protein levels after drug treatment; type: cell-based, human; conditions: HCT116 or MCF-7 cells, 5 μM, 48 and 72 hours
Protocol: (§1) Cell lines used in these examples were purchased from the American Type Culture Collection (Manassas, Va.). Cells were maintained in DMEM supplemented with 10% fetal bovine serum with glutamine, penicillin, and streptomycin. For drug treatment, cells were seeded the day before the drug treatment. Cells were treated with 5 μM 3-Deazaneplanocin A or 2 μM 5-aza-2'-deoxycytidine (5-AzaC; Sigma) for 72 hours and trichostatin A (TSA; Sigma) at 100 nM for 24 hours. For co-treatment of cells with 5-AzaC and TSA, 5-Aza was added for 48 hours and followed by TSA for 24 hours. Cell pellets were first lysed in RadioImmuno Precipitation Assay (RIPA) buffer, consisting of an aqueous solution of 25 mM Tris-HCl pH 7.6, 150 mM NaCl, 1% Nonidet-P 40 (NP-40), 1% sodium deoxycholate and 0.1% sodium dodecylsulfate (SDS), before further sonicated using a tissue homogeniser to release all the proteins. Equal amounts of protein were separated on SDS-polyacrylamide gels and transferred to polyvinylidene difluoride (PVDF) membranes. The blots were probed with antibodies against: EED (07-368), SUZ12 (07-379), SUV39H1 (07-550), BMI1 (05-637), tri-methylated H3-K27 (07-449), tri-methylated H3-K9 (07-442) and Acetyl-Histone H3 (06-599), and were purchased from Upstate. EZH2 (AC22) and Histone H3 (3H1) were from Cell Signaling. […]

[2] = test system: trimethylation of histone 3 at lysine 27 (H3-K27); assay: Western blot of histone H3 lysine 27 trimethylation; type: cell-based, human; conditions: HCT116 or MCF-7 cells, 5 μM, 48 and 72 hours
Protocol: as §1

CC33D cells = assay: Microscopy examination of cell death in primary colon epithelial cells; type: cell-based; conditions: normal primary colon epithelial CC33D cells compared to HCT116
Excerpt: To determine whether 3-deazaneplanocin preferentially induces apoptosis in cancer cells, the apoptosis induction between MCF-7 cells and the non-cancerous breast epithelial MCF10A cells was compared for various periods of time. […] In addition, normal primary colon epithelial CC33D cells, like MCF10A cells, were also resistant to 3-deazaneplanocin treatment compared to colorectal cancer HCT116 cell, as evaluated by microscopy examination (FIGS. 3G & 3H).

[3] = test system: SUZ12 binding to PRC2 target gene promoters; assay: ChIP of SUZ12 binding to PRC2 target gene promoters; type: cell-based, human; conditions: MCF-7 cells, 5 μM, 48 hours
Protocol: ChIP assays were performed as described previously. […] MCF-7 cell were seeded into 6-well plates at 30% confluence and treated with or without 3-deazaneplanocin (5 μM) for 48 hours. Cells were washed once in 1× phosphate-buffered saline (PBS) and then treated with 1% formaldehyde in PBS at 37° C. for […] followed by the addition of glycine to a final concentration of 0.125 M for 5 mM. Cells were then scraped on ice and centrifuged at 1500 rpm for 5 mM at 4° C. After washing with PBS cell pellets were resuspended in 1 mL of cold lysis buffer (10 mM HEPES at pH 7.5, 1 mM EDTA at pH 8.0, 400 mM NaCl, 10% glycerol, 0.5% NP-40, 0.5 mM phenylmethylsulfonyl fluoride, and protease inhibitors [1 mM benzamidine, 3 mg/mL leupeptin, 0.1 mg/mL bacitracin, 1 mg/mL macroglobulin]) followed by centrifugation at 11,500 rpm in a microfuge for 5 min at 4° C. to remove protein not cross-linked to chromatin. The resulting pellets were then resuspended again in 1 mL of cold lysis buffer and sonicated with a Heat Systems-Ultrasonics, Inc. W-220 sonicator at 20% output for a total of 2 mM (pulsed: 30 sec on/30 sec off). The resulting solution was cleared by centrifugation at maximum speed in a microfuge for 10 mM at 4° C. At this point 5% of the solution was taken and stored at −20° C. for the input chromatin sample. […]

With Nc1nccc2c1ncn2C1C=C(CO)C(O)C1O (stereo not shown) [3-deazaneplanocin, 5-(4-amino-1H-imidazo[4,5-c]pyridin-1-yl)-3-(hydroxymethyl)-3-cyclopentene-1,2-diol] the “protein levels of PRC2 components SUZ12, EZH2 and EED” value [1] was “dramatic decrease”, the “trimethylation of histone 3 at lysine 27 (H3-K27)” value [2] was “strongly reduced” and the “sensitivity to treatment, microscopy examination” value (CC33D cells) was “resistant”. The “SUZ12 binding to PRC2 target gene promoters (ChIP)” value [3] was “markedly reduced”.
